Earlier results in patent US20210363254A1, “PHARMACEUTICAL COMBINATIONS” (Novartis AG, priority 2018, published 2021).

Tested on: renal cell carcinoma (RCC)
Details: RCC patients beyond first-line therapy; cited from earlier work

## Nivolumab: inhibitor of the PD-1/PD-L1 interaction approved for use in RCC
  OS benefit compared with everolimus: 5.4 months
  median OS: 25 months
